The values that follow come from ChEMBL document CHEMBL4190286, “Modulating the Serotonin Receptor Spectrum of Pulicatin Natural Products” (J Nat Prod, 2017).

Test [1] concerns the target 5-hydroxytryptamine receptor 2B (Homo sapiens, UniProt P41595). In words: Displacement of [3H]-LSD from human 5-HT2B receptor expressed in HEK cells after 90 mins by microbeta scintillation counting analysis. The test is classed as cell-based.
Test [2] deals with 5-hydroxytryptamine receptor 1B (Homo sapiens, UniProt P28222). In words: Displacement of [3H]5-CT from human 5-HT1B receptor expressed in HEK cells after 90 mins by microbeta scintillation counting analysis. The test is classed as cell-based.
Test [3] deals with 5-hydroxytryptamine receptor 2A (Homo sapiens, UniProt P28223). In words: Displacement of [3H]Ketanserin from 5-HT2A (unknown origin) receptor after 90 mins by microbeta scintillation counting analysis. (Displacement assays read how much labelled ligand stays bound in the presence of the test substance.)
Test [4] has as its target 5-hydroxytryptamine receptor 1D (Homo sapiens, UniProt P28221). In words: Displacement of [3H]5-CT from human 5-HT1D receptor expressed in HEKT cells after 90 mins by microbeta scintillation counting analysis. The test is classed as cell-based.
Test [5] has as its target 5-hydroxytryptamine receptor 7 (Homo sapiens, UniProt P34969). In words: Displacement of [3H]-LSD from human 5-HT7A receptor expressed in HEK cells after 90 mins by microbeta scintillation counting analysis. The test is classed as cell-based.
For test [6], the target named is T1, 5-hydroxytryptamine receptor 3A (Homo sapiens, UniProt P46098).
T1 sequence (P46098 whole entry): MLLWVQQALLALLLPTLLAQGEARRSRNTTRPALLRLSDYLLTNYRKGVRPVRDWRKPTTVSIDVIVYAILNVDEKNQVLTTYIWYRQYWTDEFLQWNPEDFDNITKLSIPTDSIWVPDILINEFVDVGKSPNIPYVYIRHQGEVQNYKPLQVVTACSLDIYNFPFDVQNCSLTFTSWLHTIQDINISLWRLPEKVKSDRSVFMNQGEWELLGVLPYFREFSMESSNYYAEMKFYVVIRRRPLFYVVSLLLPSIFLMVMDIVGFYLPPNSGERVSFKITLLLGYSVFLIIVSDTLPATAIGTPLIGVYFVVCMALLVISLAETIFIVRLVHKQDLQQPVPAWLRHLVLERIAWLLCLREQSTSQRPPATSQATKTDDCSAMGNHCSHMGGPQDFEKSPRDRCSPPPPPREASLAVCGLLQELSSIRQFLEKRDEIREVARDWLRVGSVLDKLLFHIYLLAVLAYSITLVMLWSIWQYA
In words: Displacement of [3H]-GR65630 from human 5-HT3 receptor expressed in HEKT cells after 90 mins by microbeta scintillation counting analysis. The test is classed as cell-based.

Test [7] addresses 5-hydroxytryptamine receptor 1E (Homo sapiens, UniProt P28566). In words: Displacement of [3H]5-HT from human 5-HT1E receptor expressed in HEK cells after 90 mins by microbeta scintillation counting analysis. Type of test: cell-based.
Test [8] concerns the target 5-hydroxytryptamine receptor 6 (Homo sapiens, UniProt P50406). Put plainly: Displacement of [3H]-LSD from human 5-HT6 receptor expressed in HEK cells after 90 mins by microbeta scintillation counting analysis. The test is classed as cell-based.
In test [9] the target is 5-hydroxytryptamine receptor 5A (Homo sapiens, UniProt P47898). Put plainly: Displacement of [3H]-LSD from human 5-HT5A receptor expressed in Flp-In CHO cells after 90 mins by microbeta scintillation counting analysis. The test is classed as cell-based.
Test [10] concerns the target T2, 5-hydroxytryptamine receptor 2C (Homo sapiens, UniProt P28335).
T2 sequence (P28335 whole entry): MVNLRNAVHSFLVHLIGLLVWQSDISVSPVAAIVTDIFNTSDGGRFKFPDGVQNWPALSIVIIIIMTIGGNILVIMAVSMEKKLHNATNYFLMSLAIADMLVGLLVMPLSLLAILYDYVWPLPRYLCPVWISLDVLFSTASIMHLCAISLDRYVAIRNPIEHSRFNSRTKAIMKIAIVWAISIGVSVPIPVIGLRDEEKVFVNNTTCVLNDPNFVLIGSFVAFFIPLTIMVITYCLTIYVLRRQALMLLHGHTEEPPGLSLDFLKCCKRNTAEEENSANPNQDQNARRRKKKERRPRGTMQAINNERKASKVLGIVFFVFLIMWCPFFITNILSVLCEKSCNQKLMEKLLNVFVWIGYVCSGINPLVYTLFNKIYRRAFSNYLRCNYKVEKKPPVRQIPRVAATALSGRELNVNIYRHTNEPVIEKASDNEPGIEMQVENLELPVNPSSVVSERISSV
In words: Displacement of [3H]-Mesulergine from human 5-HT2C receptor expressed in HEKT cells after 90 mins by microbeta scintillation counting analysis. The test is classed as cell-based.

Sequence of 5-hydroxytryptamine receptor 2B (P41595 whole entry): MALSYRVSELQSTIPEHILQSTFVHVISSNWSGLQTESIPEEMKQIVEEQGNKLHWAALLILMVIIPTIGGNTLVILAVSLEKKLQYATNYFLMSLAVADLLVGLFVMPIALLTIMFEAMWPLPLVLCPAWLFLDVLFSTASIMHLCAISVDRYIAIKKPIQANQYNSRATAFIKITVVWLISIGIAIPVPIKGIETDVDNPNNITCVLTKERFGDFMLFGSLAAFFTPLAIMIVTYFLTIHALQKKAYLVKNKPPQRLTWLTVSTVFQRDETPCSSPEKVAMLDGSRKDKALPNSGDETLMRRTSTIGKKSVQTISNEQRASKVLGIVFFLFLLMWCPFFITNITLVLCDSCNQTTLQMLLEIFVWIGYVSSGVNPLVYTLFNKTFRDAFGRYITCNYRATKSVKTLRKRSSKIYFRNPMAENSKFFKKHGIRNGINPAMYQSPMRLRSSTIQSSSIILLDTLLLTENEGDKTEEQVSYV
Sequence of 5-hydroxytryptamine receptor 1D (P28221 whole entry): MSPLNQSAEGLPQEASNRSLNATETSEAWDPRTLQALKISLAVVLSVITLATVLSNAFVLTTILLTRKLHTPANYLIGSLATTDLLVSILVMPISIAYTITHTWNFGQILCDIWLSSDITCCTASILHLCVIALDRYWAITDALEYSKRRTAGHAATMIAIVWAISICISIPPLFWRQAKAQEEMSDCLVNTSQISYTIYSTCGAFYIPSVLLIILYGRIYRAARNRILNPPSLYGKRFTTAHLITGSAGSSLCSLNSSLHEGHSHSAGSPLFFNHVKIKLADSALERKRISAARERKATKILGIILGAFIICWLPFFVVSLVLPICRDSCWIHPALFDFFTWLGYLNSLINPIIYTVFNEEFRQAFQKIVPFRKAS
Sequence of 5-hydroxytryptamine receptor 7 (P34969 whole entry): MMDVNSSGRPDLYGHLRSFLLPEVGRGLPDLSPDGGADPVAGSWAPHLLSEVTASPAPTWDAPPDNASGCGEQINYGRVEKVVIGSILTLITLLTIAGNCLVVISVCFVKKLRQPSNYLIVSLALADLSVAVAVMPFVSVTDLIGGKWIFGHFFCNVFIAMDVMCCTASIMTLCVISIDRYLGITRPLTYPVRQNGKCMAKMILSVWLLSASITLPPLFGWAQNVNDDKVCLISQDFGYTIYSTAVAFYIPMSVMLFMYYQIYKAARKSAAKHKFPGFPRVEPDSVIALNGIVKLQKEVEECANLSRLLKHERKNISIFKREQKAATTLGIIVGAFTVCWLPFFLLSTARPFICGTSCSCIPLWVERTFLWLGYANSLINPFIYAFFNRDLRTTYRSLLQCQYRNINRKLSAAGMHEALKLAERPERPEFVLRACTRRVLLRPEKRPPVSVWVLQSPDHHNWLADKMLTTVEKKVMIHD
Sequence of 5-hydroxytryptamine receptor 1B (P28222 whole entry): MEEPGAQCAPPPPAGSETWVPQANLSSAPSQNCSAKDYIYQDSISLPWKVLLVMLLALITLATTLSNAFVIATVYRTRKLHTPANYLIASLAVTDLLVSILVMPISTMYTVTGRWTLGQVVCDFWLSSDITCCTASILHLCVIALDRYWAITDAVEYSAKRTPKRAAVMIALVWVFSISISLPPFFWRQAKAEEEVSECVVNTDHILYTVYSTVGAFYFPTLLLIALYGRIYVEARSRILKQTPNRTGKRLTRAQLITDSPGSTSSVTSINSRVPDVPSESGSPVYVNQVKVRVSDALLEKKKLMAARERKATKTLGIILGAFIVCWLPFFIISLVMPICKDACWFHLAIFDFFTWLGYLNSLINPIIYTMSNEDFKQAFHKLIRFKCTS
Sequence of 5-hydroxytryptamine receptor 2A (P28223 whole entry): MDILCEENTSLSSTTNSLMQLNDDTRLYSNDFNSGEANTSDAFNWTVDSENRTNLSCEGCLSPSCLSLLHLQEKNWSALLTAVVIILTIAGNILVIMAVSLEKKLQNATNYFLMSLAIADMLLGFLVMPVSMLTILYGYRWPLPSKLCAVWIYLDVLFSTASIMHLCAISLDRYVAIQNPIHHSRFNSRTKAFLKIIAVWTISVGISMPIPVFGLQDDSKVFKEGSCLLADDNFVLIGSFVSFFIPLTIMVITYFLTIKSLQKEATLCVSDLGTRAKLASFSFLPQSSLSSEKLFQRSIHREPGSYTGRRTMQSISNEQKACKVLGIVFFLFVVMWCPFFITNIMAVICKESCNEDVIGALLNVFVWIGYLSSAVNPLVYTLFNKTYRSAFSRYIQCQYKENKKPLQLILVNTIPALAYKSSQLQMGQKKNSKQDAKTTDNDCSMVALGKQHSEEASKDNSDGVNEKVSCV
Sequence of 5-hydroxytryptamine receptor 6 (P50406 whole entry): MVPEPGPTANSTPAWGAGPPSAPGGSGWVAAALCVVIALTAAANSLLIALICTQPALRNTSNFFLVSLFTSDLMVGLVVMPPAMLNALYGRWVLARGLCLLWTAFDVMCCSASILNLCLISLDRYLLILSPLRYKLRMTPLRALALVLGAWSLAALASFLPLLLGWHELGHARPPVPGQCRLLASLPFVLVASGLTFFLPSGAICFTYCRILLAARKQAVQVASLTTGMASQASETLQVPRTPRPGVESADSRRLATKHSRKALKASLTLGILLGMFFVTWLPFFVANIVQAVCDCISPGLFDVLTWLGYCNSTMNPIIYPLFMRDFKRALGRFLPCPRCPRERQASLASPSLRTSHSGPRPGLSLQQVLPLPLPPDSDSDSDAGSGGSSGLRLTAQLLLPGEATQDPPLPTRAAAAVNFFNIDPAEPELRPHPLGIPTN
Sequence of 5-hydroxytryptamine receptor 1E (P28566 whole entry): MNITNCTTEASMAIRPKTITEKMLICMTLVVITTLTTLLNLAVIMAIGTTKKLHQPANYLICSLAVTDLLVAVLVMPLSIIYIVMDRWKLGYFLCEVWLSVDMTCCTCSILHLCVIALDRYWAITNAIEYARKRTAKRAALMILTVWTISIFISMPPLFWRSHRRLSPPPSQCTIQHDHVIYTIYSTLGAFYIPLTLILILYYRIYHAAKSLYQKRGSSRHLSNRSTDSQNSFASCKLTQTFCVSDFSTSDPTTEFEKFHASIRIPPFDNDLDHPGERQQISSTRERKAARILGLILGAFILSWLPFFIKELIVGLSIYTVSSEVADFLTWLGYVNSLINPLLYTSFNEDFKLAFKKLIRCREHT
Sequence of 5-hydroxytryptamine receptor 5A (P47898 whole entry): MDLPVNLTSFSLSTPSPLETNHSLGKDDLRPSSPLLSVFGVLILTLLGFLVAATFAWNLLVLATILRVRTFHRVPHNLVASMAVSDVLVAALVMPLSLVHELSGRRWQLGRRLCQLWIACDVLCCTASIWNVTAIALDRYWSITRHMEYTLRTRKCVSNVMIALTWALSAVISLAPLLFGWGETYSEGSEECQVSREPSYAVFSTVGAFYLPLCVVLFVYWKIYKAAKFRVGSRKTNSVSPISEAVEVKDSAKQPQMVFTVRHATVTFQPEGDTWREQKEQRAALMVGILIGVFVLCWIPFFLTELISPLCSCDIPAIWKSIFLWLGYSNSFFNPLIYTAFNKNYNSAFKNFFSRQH

The Ki is a dissociation constant, usually derived from enzyme kinetics or from competition with a known ligand. Read a low Ki as tighter binding. In test [1], `C[C@H]1SC(c2ccccc2O)=N[C@H]1CO` returned a Ki of 0.4 µM.
As for `Oc1ccccc1C1=NC(Cc2c[nH]cn2)CS1` (racemic), the Ki in test [2] was greater than 10 µM; in test [3] it was greater than 10 µM; in [4], 1.9 µM; in [5], 7.4 µM; in test [6], 0.95 µM; in test [7], greater than 10 µM. The Ki in test [8] is greater than 10 µM; in test [9], greater than 10 µM; in [10] it was greater than 10 µM; in [1], 0.1 µM.
Consider `Oc1ccccc1C1=N[C@@H]2CCC[C@@H]2S1` (racemic), for which the Ki in [2], in test [3], in test [4], in test [5], in test [6] and in test [7] was greater than 10 µM each time. In addition, the Ki in test [8], in [9], in test [10] and in test [1] was greater than 10 µM throughout.
In the case of `C[C@H]1SC(c2ccccc2O)=N[C@@H]1CO` (racemic), the Ki was 2.2 µM in [10] and 0.62 µM in test [1].
Take `C[C@@H]1SC(c2c[nH]c3ccccc23)=N[C@H]1CO` (relative stereo): the Ki in test [2] was greater than 10 µM; in [3], greater than 10 µM; in test [4], 2.7 µM; in [5], greater than 10 µM; in [6] it was 2.8 µM; in test [7], greater than 10 µM. Besides, the Ki was greater than 10 µM in test [8], greater than 10 µM in [9], 5.4 µM in [10] and 2.4 µM in test [1].
Regarding `C[C@@H]1SC(c2ccccc2)=N[C@H]1CO` (relative stereo), the Ki in test [2] is greater than 10 µM; in test [3], greater than 10 µM; in test [4] it was 5.3 µM; in test [5], greater than 10 µM; in [6], 6.7 µM; in test [7], greater than 10 µM. The Ki in test [8] is greater than 10 µM; in [9] it was greater than 10 µM; in [10] it was 35 µM; in [1] it was 3 µM.
`C[C@H]1SC(c2ccc(-c3ccccc3)cc2)=N[C@H]1Cc1c[nH]cn1` (relative stereo): the Ki amounted to 0.31 µM in [3], 2.3 µM in test [10] and 1.4 µM in [1].
As to `C[C@@H]1SC(c2ccc(-c3ccccc3)cc2)=N[C@H]1Cc1c[nH]cn1` (relative stereo), the Ki in test [3] stood at 0.24 µM; in test [10], 1.4 µM; in test [1] it was 1.1 µM.
`C[C@@H]1SC(c2cc3ccccc3cc2O)=N[C@H]1CO` (relative stereo): the Ki in test [2] is greater than 10 µM; in test [3] it was greater than 10 µM; in test [4] it was greater than 10 µM; in test [5] it was greater than 10 µM; in test [6], 1.8 µM; in test [7], greater than 10 µM. For the same compound, the Ki in [8] is greater than 10 µM; in [9], greater than 10 µM; in test [10], 2.4 µM; in test [1], 0.81 µM.
Turning to `C[C@@H]1SC(c2ccco2)=N[C@H]1CO` (relative stereo), the Ki in [2], in test [3], in test [4], in test [5], in [6] and in [7] was greater than 10 µM throughout. The Ki in [8], in [9], in test [10] and in test [1] was greater than 10 µM in each case.
Consider `CNc1ccccc1C1=N[C@@H](CO)[C@H](C)S1` (relative stereo), for which the Ki in test [2] is greater than 10 µM; in test [3] it was greater than 10 µM; in test [4], 8.5 µM; in test [5], greater than 10 µM; in test [6] it was 3.6 µM; in test [7], greater than 10 µM. The Ki in test [8] is greater than 10 µM; in test [9], greater than 10 µM; in test [10] it was 1.9 µM; in test [1] it was 1.2 µM.
